The values below are quoted from earlier work in patent publication US20130023661A1, “FLUORINATING REAGENTS WITH (PERFLUORALKYL) FLUOROPHOSPHATE ANION” (MERCK PATENT GESELLSCHAFT MIT BESCHRANKTER HAFTUNG, priority 2010, published 2013).

The conditions of this data set: stored in a cool, dry place.

For the compound `F[N+]12CC[N+](CCl)(CC1)CC2` [F-TEDA-BF4, 1-chloromethyl-4-fluorodiazoniabicyclo[2.2.2]octane bistetrafluoroborate], the guaranteed storage stability result is recorded as “not more than one year”.
